Source: BindingDB's records for doi:10.1021/jf901979k (University of Lleida, 2009)

Assay: Inhibition of esterase in male Ostrinia nubilalis (European corn borer) antenna

Row | IC50 | SMILES
1 | 7.5 µM | CC/C=C\CCCCCCCCCC(=O)C(F)(F)F [(Z)-10-tridecenyl trifluoromethyl ketone]
2 | 0.28 µM | CC/C=C\CCCCCCCCCCC(=O)C(F)(F)F [(Z)-11-tetradecenyl trifluoromethyl ketone]
